Laboratory results published in patent US9995734B2, “Human T cell line assay for evaluating the immunologic identity of glatiramer acetate preparations” (Mylan Inc., priority 2013, dated 2018).
Where “and” joins values, the source holds several entries; their conditions need not be identical. Equal entries are not always repeated.

Legend:
[1] = test system: Donor 1 COP T-Cell Lines; assay: ATP proliferation assay (CellTiter Glo), Donor 1 COP T-cell lines, incl. reactivity to non-canonical GA peptides; type: cell-based, human; settings: for response to GMA in comparison to COP: 10 μg/mL dose; for ATP Proliferation Assay, Mean: Day 56, second assay; for ATP proliferation assay / luminescent ATP proliferation assay, mean: Day 56; for ATP proliferation assay: 48 hours after stimulation; for luminescent ATP proliferation assay, mean: no antigen 5673 (Table 9); for Proliferation (luminescent ATP assay), Mean: Day 56 of culturing
Protocol: Proliferation was evaluated by measuring ATP content using a luminescent method (CellTiter Glo Luminescent Cell Viability Assay, Promega, Madison, Wis., cat. #G7571) or by measuring BrdU uptake by ELISA (Millipore cat. #2752), in both cases following kit instructions. A split well format was used. Cells in each well were resuspended and 65 μl transferred to the wells of each of two new U-bottom 96-well plates, to generate the replicate plates. For the initial screening, the original 96-well plate received mitomycin-treated autologous PBMC as APC plus 10 μg/mL antigen (GA). A first replicate plate received 100 μl., mitomycin-treated PBMC alone (2×10^5), and no antigen, and a second replicate plate received 100 μL mitomycin-treated PBMC plus GA at a final concentration of 10 μg/mL. Therefore, all three plates received autologous APC (PBMC) treated with mitomycin C to prevent cell division. […] The latter two plates were incubated for 3 days at 37° C., 6% CO2 before adding CellTiter Glo or BrdU and measuring signal. IL-2 was added at 10 U/mL to the original 96-well plate for expansion on Day 17. For subsequent screenings, mitomycin-treated EBV-transformed autologous B-LCL (2×10^5 to 5×10^5 cells/mL) were used as APC.
COP-responsive T-cell lines were obtained from Donor 1. In the initial stimulation, isolated PBMC were plated at 1×10^5 cells per well (5×10^5 cells/mL) with 10 μg/mL Copaxone and cultured as described above. IL-2 was added to all wells on Days 4 and 7 of culture, and the wells screened for reactivity on Day 14 using a luminescent proliferation assay in split well format. The original plate was restimulated, and IL-2 added 4 days after restimulation.
T-cell line 222-2D8, generated from Donor 1 by initial stimulation with COP, was shown in at least two experiments to proliferate comparably following restimulation with GMA and COP. […] ATP levels were measured at 48 hours after stimulation. The control in the GMA series was no antigen, and the control in the COP series was MBP. The response to GMA in comparison to COP at the 10 μg/mL dose in this assay was 103.4%.
In a second ATP proliferation assay, carried out on Day 56 or culturing following stimulation with 1, 3, or 10 μg/mL of GMA or COP, the response to GMA in comparison to COP at the 10 μg/mL dose was 107.1%.
T-cell line 222-2F1, generated from Donor 222 by initial stimulation with COP, was shown in at least two experiments to proliferate comparably following restimulation with GMA and COP. […] ATP levels were measured at 48 hours after stimulation. The control in the GMA series was no antigen, and the control in the COP series was MBP. The response to GMA in comparison to COP at the 10 μg/mL dose in this assay was 85.1%.
On Day 56 of culturing, after six total rounds of stimulation, cell line 222-2F12 was assayed for proliferation in response to stimulation with GA and a series of non-canonical peptides. For the assay, 0, 3, 10, or 30 μg/mL of each of peptides GL 14, GLT 631, GAT 111, and GAT 631, COP, and GMA, were added to the T-cell lines at 1×10^5 cells/mL, in the presence of mitomycin C-treated autologous B-LCL. Proliferation was measured by luminescent ATP assay. Cell line 222-2F12 responded to GL 14 at 3 μg/mL, and not to the other non-canonical GA peptides tested. The response to GMA in comparison to COP at the 10 μg/mL dose in this assay was 99.4%.
The cultures were restimulated on days 46, 56, 67 and 75. On Day 56, cell lines 222-2D8, 222-1H12, 222-2F12, 222-2B8, 222-105, 222-2B11, and 222-2E1 again were tested for reactivity to stimulation with 1, 3, or 10 μg/mL of GMA or COP in a proliferation assay. ATP levels were measured in all seven cell lines at 48 hours (results in FIGS. 5A-G) after stimulation. The control in the GMA series was no antigen, and the control in the COP series was MBP. […]

[2] = test system: Donor 4 COP T-Cell Lines; assay: ATP proliferation assay (CellTiter Glo), Donor 4 COP T-cell lines, incl. reactivity to non-canonical GA peptides; type: cell-based, human; settings: for response to GMA in comparison to COP: 10 μg/mL dose; for Mean, ATP proliferation assay: Cell Line 205-1F4; for Proliferation (luminescent ATP assay), Mean: T-cell line 205-1F4, autologous B-LCL; for Reactivity (proliferation), Mean: T-cell line 205-1H3, 0 μg/mL 4121.0; for Non-Canonical Peptide Non-Reactivity: proliferation <2 times no antigen control

With glatiramer acetate [GMA] the “response to GMA in comparison to COP” value ([1]; 222-2D8, Day 56 (Table 6)) was 103.4%, the “response to GMA in comparison to COP” value ([1]; 222-2D8, second assay (Table 7)) was 107.1% and the “ATP Proliferation Assay, Mean” value ([1]; 222-2D8, 1 μg/mL (Table 7)) was 2078. For the same substance, the “ATP Proliferation Assay, Mean” value ([1]; 222-2D8, 3 μg/mL (Table 7)) was 149752, the “ATP Proliferation Assay, Mean” value ([1]; 222-2D8, 10 μg/mL (Table 7)) was 156417 and the ATP proliferation assay ([1]; 222-2D8, 1 μg/mL (Table 6)) was 4369. The ATP proliferation assay ([1]; 222-2D8, 3 μg/mL (Table 6)) was 7480, the ATP proliferation assay ([1]; 222-2D8, 10 μg/mL (Table 6)) was 12793 and the “response to GMA in comparison to COP” value ([1]; 222-2F12 (printed 222-2F1), Day 56 (Table 8)) was 85.1%. For the same substance, the “response to GMA in comparison to COP” value ([1]; 222-2F12, Day 56 (Table 9)) was 99.4%, the “luminescent ATP proliferation assay, mean” value ([1]; 222-2F12, 3 μg/mL) was 232779 and the “luminescent ATP proliferation assay, mean” value ([1]; 222-2F12, 10 μg/mL) was 228761. The “luminescent ATP proliferation assay, mean” value ([1]; 222-2F12, 30 μg/mL) was 125994, the ATP proliferation assay ([1]; 222-2F12, 1 μg/mL (Table 8)) was 6500 and the ATP proliferation assay ([1]; 222-2F12, 3 μg/mL (Table 8)) was 8520. The ATP proliferation assay ([1]; 222-2F12, 10 μg/mL (Table 8)) was 12382, the “Proliferation (luminescent ATP assay), Mean” value ([1]; T-cell line 222-1H12, 3 μg/mL antigen, 0 μg/mL 5974) was 141486 RLU and the “Proliferation (luminescent ATP assay), Mean” value ([1]; T-cell line 222-1H12, 10 μg/mL antigen, 0 μg/mL 5974) was 167193 RLU. The “Proliferation (luminescent ATP assay), Mean” value ([1]; T-cell line 222-1H12, 30 μg/mL antigen, 0 μg/mL 5974) was 82376 RLU, the “Proliferation (luminescent ATP assay), Mean” value ([1]; T-cell line 222-2F12, 3 μg/mL antigen, 0 μg/mL 5673) was 232779 and the “Proliferation (luminescent ATP assay), Mean” value ([1]; T-cell line 222-2F12, 10 μg/mL antigen, 0 μg/mL 5673) was 228761. The “Proliferation (luminescent ATP assay), Mean” value ([1]; T-cell line 222-2F12, 30 μg/mL antigen, 0 μg/mL 5673) was 125994, the “response to GMA in comparison to COP” value ([2]; 205-1F4, Day 50 (Table 27)) was 102.7% and the “response to GMA in comparison to COP” value ([2]; 205-1F4, Day 58 (Table 28)) was 98.5%. The “response to GMA in comparison to COP” value ([2]; 205-1F4, Day 71) was 101.3%, the “Mean, ATP proliferation assay” value ([2]; Day 50, 1 μg/mL) was 17341 and the “Mean, ATP proliferation assay” value ([2]; Day 50, 3 μg/mL) was 195335. The “Mean, ATP proliferation assay” value ([2]; Day 50, 10 μg/mL) was 218954, the “Mean, ATP proliferation assay” value ([2]; Day 58, 3 μg/mL) was 29921 and the “Mean, ATP proliferation assay” value ([2]; Day 58, 10 μg/mL) was 30998. For the same substance, the “Mean, ATP proliferation assay” value ([2]; Day 58, 30 μg/mL) was 33915, the “Mean, ATP proliferation assay” value ([2]; Day 58, 100 μg/mL) was 32698 and the “Proliferation (luminescent ATP assay), Mean” value ([2]; Day 71, 1 μg/mL antigen) was 17341. For the same substance, the “Proliferation (luminescent ATP assay), Mean” value ([2]; Day 71, 3 μg/mL antigen) was 195335, the “Proliferation (luminescent ATP assay), Mean” value ([2]; Day 71, 10 μg/mL antigen) was 218954 and the “Proliferation (luminescent ATP assay), Mean” value ([2]; Day 80, 1 μg/mL antigen) was 7,477. For the same substance, the “Proliferation (luminescent ATP assay), Mean” value ([2]; Day 80, 2 μg/mL antigen) was 64,999, the “Proliferation (luminescent ATP assay), Mean” value ([2]; Day 80, 5 μg/mL antigen) was 83,107 and the “Proliferation (luminescent ATP assay), Mean” value ([2]; Day 80, 10 μg/mL antigen) was 67,482. For the same substance, the “Reactivity (proliferation), Mean” value ([2]; 1 μg/mL antigen) was 37654.3, the “Reactivity (proliferation), Mean” value ([2]; 3 μg/mL antigen) was 55284.3 and the “Reactivity (proliferation), Mean” value ([2]; 10 μg/mL antigen) was 60841.7.

In the case of poly (Glu-Ala-Tyr; 1:1:1) [GAT 111], the “luminescent ATP proliferation assay, mean” value ([1]; 222-2F12, 3 μg/mL) is reported as 3914, the “luminescent ATP proliferation assay, mean” value ([1]; 222-2F12, 10 μg/mL) is reported as 3590 and the “luminescent ATP proliferation assay, mean” value ([1]; 222-2F12, 30 μg/mL) is reported as 2430. For the same substance, the “Non-Canonical Peptide Non-Reactivity” value ([1]; 222-2F12, proliferation <2 times no antigen control) was “GAT 111”, the “Nonreactive T-Cell Line” value ([1]; Donor 1 COP lines, stimulation with the non-canonical GA peptide) was 222-2F12 (Donor 1) and 222-1H12 (Donor 1) and the “Non-Canonical Peptide Non-Reactivity” value ([2]; 205-1F4) was “GAT 111”. The “Non-Canonical Peptide Non-Reactivity” value ([2]; 205-1H3) was “GAT 111”, the “reactivity to non-canonical GA peptides” value ([2]; 205-1H7, after seven stimulations, 0, 1, 10, 30 μg/mL) was “not” and the “Non-Canonical Peptide Non-Reactivity” value ([2]; 205-1H7) was “GAT 111”. The “Non-Canonical Peptide Non-Reactivity” value ([2]; 205-1H11) was “GAT 111”, the “Nonreactive T-Cell Line” value ([2]; Donor 4 COP lines, stimulation with the non-canonical GA peptide) was 205-1F4 (Donor 4) and 205-1H3 (Donor 4) and 205-1H7 (Donor 4) and 205-1H11 (Donor 4) and the “Proliferation (luminescent ATP assay), Mean” value ([2]; Day 71, 1 μg/mL antigen) was 2002. The “Proliferation (luminescent ATP assay), Mean” value ([2]; Day 71, 3 μg/mL antigen) was 2163 and the “Proliferation (luminescent ATP assay), Mean” value ([2]; Day 71, 10 μg/mL antigen) was 2275.
